According to paper PMC5656322, “BAK1 is involved in AtRALF1-induced inhibition of root cell expansion” (PLoS Genetics, 2017):
“Also recorded” adds a separate entry of the source. Where no end group is shown, it is not given here.

Assays:
[1] = tested on: Arabidopsis seedlings, primary root; experiment: Root growth inhibition assay, vertical plates; assay type: in vivo, Arabidopsis thaliana
Method: (A) and (B) Arabidopsis seedlings (2 days old) were treated with 10 μM AtRALF1 or water (H20) for 2 days. The values are the mean ± SD of at least 25 seedlings. Triple asterisks indicate P < 0.01 (Student’s t test); ns, not significant. (C) Four-day-old seedlings were transferred to media containing different concentrations of AtRALF1, and the primary root length was measured after 8 days of treatment. The data represent the mean value ± SD of 30 seedlings. […] Representative Arabidopsis seedlings after 8 days of treatment with AtRALF1 are shown below. Seedlings were arranged on plates after the treatment for imaging. Scale bars, 1 cm. (D) Two-day-old seedlings were treated with 10 μM AtRALF1 or water for 2 days, and root cell length was measured after 2 days of treatment. Cells from the root endodermis in the differentiation zone were measured. The values are the mean ± SD of approximately 150 cells. Triple asterisks indicate P < 0.01 (Student’s t test); ns, not significant.
Aliquots of 1 ml of medium containing seeds were distributed into 24-well plates. The peptides (10 μM) were added after 2 days, and the root length was measured 2 days after treatment. To maximize root growth, the seeds were germinated in vertical plates. […] The root length was measured 8 days after treatment unless stated otherwise. Control plants were grown under identical conditions in a peptide-free medium. Quantitative data were obtained as previously described. […] The data from one representative experiment are shown. For cell length measurements, AtRALF1 peptide (10 μM) was added after 2 days of germination, and the cell length was measured after 2 days of treatment. The cell wall was stained with a 1 mg ml^-1 propidium iodide solution (Sigma) in the dark for 15 min and washed twice with water. Cells of the endodermis of the root differentiation zone were imaged and measured using confocal microscopy (Olympus FV1000). Approximately 30 plants from each genetic background and at least 5 cells per root were measured. The wavelengths for excitation and emission were 555 and 655 nm, respectively. Image processing was completed using the Olympus FluoView software.
Supplementary file pgen.1007053.s004.pdf: S4 Fig Analyses of root growth of Arabidopsis seedlings treated with AtRALF1 peptide for 8 days and evaluated daily. Four-day-old seedlings were transferred to media containing different concentrations of AtRALF1, and the primary root length was measured daily during the 8 days of treatment. Genotypes Wt, bak1-1, bak1-3 and bak1-4 are indicated on top of each series of graphics. The seedlings were treated with 0, 0.5, 1, 5 and 10 μM AtRALF1. The data represent the mean values ± SD of 30 seedlings. Double and triple asterisks indicate P < 0.05 and P <0.01, respectively (Student’s t test); ns, not significant. (PDF) Click here for additional data file.
Four-day-old seedlings were transferred to medium containing 10 μM AtRALF1, and the primary root length was measured after 8 days of treatment. The data represent the mean value ± SD of 20 seedlings. Triple asterisks indicate P < 0.01 (Student’s t test); ns, not significant. Representative Arabidopsis seedlings after 8 days of treatment with AtRALF1 are shown. The seedlings were arranged on plates after the treatment for imaging. Scale bars, 1 cm. (PDF) Click here for additional data file.
Four-day-old seedlings were transferred to medium containing 0.1 μM BAP, and the primary root length was measured after 8 days of treatment. The data represent the mean value ± SD of 10 seedlings.

[2] = tested on: extracellular domain of BAK1 (BAK1-ECD); experiment: Yeast two-hybrid with BAK1-ECD; assay type: binding, Arabidopsis thaliana; conditions: yeast AH109, medium lacking Leu, Trp, His
From the text: Fig 6 AtRALF1 interacts physically with BAK1 protein. (A) The active AtRALF1 peptide interacts with the extracellular domain (ECD) of BAK1 (BAK1-ECD) in yeast. The AtRALF1 protein fused to the GAL4 DNA-binding domain (AtRALF1-pGBKT7) was used as bait to test its interaction with the extracellular domain of the proteins fused to the GAL4 activation domain (pGADT7): BAK1 (BAK1-ECD), BAK7 (BAK7-ECD), BRI1 (BRI1-ECD) and FLS2 (FLS2-ECD). (B) Blueprint showing the truncated proteins from the extracellular domain of BAK1 tested in the two-hybrid assay. The extracellular domain of BAK1 comprises leucine zippers (LZ), 5 leucine rich-regions (LRRs) and a proline-rich region (pro-rich). (C) AtRALF1-pGBKT7 was used as bait to test its interaction with truncated proteins fused to the GAL4 activation domain (pGADT7). […] HA-BAK1-ECD was detected with an anti-HA antibody. AtRALF1 was detected with an anti-RALF antibody. […] BAK1-GFP was detected with an anti-GFP antibody. […]
The coding regions of the mature peptides AtRALF1 and AtRALF34 were amplified from Arabidopsis genomic DNA and fused to the GAL4 DNA-binding domain and the MYC epitope tag using the NdeI/BamHI sites in the pGBKT7 (Clontech) vector. […] The proteins fused to the HA and MYC epitope tags were detected by protein blotting. […]

AtRALF1: root-specific RALF isoform in Arabidopsis; recombinant peptide hormone produced in E. coli (ATTKYISYQSLKRNSVPCSRRGASYYNCQNGAQANPYSRGCSKIARCRS; ends and bridges not checked; cysteine pairing not given here)
sensitivity of root growth ([1]; 8 days of treatment, bak1-1, bak1-3, bak1-4 mutants): insensitive to the AtRALF1 peptide | daily root growth ([1]; bak1-mutant lines, 8-day treatment, 0-10 μM): No differences were observed in the daily root growth | highest concentration to which bak1 mutants are insensitive ([1]; bak1 mutants, 8 days): ≥ 10 µM | sensitivity of root growth ([1]; bak1 mutants, side by side with fer4, 8 days): insensitive to any tested concentrations of the peptide | primary root growth inhibition ([1]; bak7 mutant, 10 μM, 8 days): inhibited primary root growth | sensitivity of root growth ([1]; fer4 mutant, side by side with bak1 mutants, 8 days): conditional insensitivity to AtRALF1 treatment; also recorded: insensitive to AtRALF1 peptide in low concentrations only | dose with significant differences in root growth by the third day of treatment ([1]; wild-type, 0.5-10 μM tested, P < 0.05 / 0.01): ≥ 1 µM | interaction with BAK1-ECD (Y2H complementation) [2]: able to complement only the BAK1-ECD construct
